Target: Tumor necrosis factor (Homo sapiens, UniProt P01375)
Assay: TNF-alpha RELEASE: Human peripheral blood mononuclear cells (PBMC) were isolated from fresh buffy coats by density centrifugation using lymphoprep tubes (Medinor). Frozen PBMC's were washed in serum free assay buffer (RPMI1640 with 25 mM HEPES, 1% pen/strep, […], 0.5% human serum albumin) and living cells counted. Lipopolysaccharide (1 microg/ml; SIGMA) was added to the cells which were then transferred to 384 well tissue culture plates (5×105 c/ml) containing titrated test compounds. The cells were incubated for 18 hours at 37° C. in serum free assay buffer and the level of TNFalpha in the supernatant was quantitated by AlphaLISA (PerkinElmer) by measuring fluorescence intensity at 615 nm.Results were expressed as IC50 values calculated from inhibition curves using as controls the secretion in LPS stimulated wells and the secretion in cells incubated with 10 microM of a PDE4 inhibitor reference compound.

Tumor necrosis factor, sequence (P01375 whole entry): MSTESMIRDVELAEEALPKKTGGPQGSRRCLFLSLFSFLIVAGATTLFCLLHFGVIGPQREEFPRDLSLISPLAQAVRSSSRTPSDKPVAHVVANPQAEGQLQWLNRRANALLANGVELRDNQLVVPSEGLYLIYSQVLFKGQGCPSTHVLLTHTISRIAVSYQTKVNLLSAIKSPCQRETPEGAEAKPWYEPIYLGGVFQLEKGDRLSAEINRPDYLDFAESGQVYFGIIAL

With `CC(=O)N1CC[C@@H](Nc2nc(N3CC(OC(=O)C4CCOCC4)C3)nc3c2[S@+]([O-])CC3)C1` the IC50 was over 500 nM.
